Reference: publication PMC11930913, “Anticancer, antioxidant and antibacterial potential of L-Glutaminase (Streptomyces roseolus strain ZKB1) capped silver and zinc oxide nanoparticles and its molecular characterization” (Bioresources and Bioprocessing, 2025)

System: T1, L-Glutaminase (Streptomyces roseolus strain ZKB1)
T1 construct: gene glsA
Assay: ammonia release by Nessler's reagent, […] nm; Lineweaver-Burk
Assay type: cell-based
Details: free enzyme; phosphate buffer pH 7.0; 37 °C; 30 min; 25-100 mM substrate

In the case of `NC(=O)CC[C@H](N)C(=O)O` [L-glutamine], the Km is reported as 13.9 ± 0.8 mM.
